Measured values taken from patent US8642594B2, “Substituted thieno[2,3-d]pyrimidines as HSP90 inhibitors” (Vernalis (R&D) Limited, priority 2003, dated 2014).

The compounds below were run against T1, Human full-length Hsp90 (Homo sapiens, UniProt P08238) (assay: Fluorescence polarization assay (competitive binding to HSP90, probe RBT0045864-FAM)). Conditions: not given.
T1 construct: E. coli expressed human full-length HSP90 protein, purified >95%; made in house; host or cells: E. coli
Summary of the method: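 Competitive fluorescence polarization: test compound displaces FAM-labelled probe RBT0045864-FAM (200 nM working solution) from HSP90 after equilibration, and anisotropy change is measured. Compounds serially diluted; BSA-containing buffer; standard compound as positive control; Z′ from zero and positive controls.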

T1 sequence (P08238 whole entry): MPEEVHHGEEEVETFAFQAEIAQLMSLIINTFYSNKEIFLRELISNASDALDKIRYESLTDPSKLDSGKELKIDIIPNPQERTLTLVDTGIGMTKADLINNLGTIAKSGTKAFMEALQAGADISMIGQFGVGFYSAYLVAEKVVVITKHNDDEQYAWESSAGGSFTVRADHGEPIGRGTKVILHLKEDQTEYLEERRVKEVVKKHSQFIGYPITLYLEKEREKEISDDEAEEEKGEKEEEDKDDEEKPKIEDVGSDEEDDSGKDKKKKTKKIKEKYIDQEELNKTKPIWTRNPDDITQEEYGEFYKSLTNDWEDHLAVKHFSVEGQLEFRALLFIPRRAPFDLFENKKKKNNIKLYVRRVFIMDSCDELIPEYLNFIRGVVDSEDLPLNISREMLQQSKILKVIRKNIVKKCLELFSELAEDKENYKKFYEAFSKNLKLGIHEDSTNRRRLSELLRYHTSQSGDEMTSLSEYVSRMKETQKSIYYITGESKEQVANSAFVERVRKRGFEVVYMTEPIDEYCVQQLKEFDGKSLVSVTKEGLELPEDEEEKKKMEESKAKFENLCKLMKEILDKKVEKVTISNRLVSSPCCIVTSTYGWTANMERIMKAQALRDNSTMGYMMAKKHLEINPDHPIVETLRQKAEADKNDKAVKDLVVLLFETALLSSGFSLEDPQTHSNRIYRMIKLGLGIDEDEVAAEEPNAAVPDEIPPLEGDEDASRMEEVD

`CCNC(=O)c1cc2c(-c3cc(OCCN4CCCC4)c(Cl)cc3Cl)nc(N)nc2s1` [Example 253] and `CCNC(=O)c1cc2c(-c3cc(OCC(N)=O)c(Cl)cc3Cl)nc(N)nc2s1` [Example 267] cannot be ordered by IC50: less than 10 µM for the first, less than 10 µM for the second.

`CCNC(=O)c1cc2c(-c3ccccc3)nc(N)nc2s1` [Example 43, 2-Amino-4-phenyl-thieno[2,3-d]pyrimidine-6-carboxylic acid ethylamide] showed an IC50 of less than 10 µM.

Same assay, conditions: fluorescence polarization assay, activity range; read-out: Hsp90 FP IC50

`Nc1nc(-c2ccc(Cl)cc2Cl)c2cc(C(=O)NCc3ccc4c(c3)OCO4)sc2n1` [Example 119] and `Nc1nc(-c2ccc(Cl)cc2Cl)c2cc(C(=O)NCc3cccc(C(F)(F)F)c3)sc2n1` [Example 122] cannot be ordered by IC50: less than 10 µM for the first, less than 10 µM for the second.

`C[C@@H](NC(=O)c1cc2c(-c3ccc(Cl)cc3Cl)nc(N)nc2s1)c1ccccc1` [Example 138] and `CC(C)NC(=O)c1cc2c(-c3ccc(Cl)cc3Cl)nc(N)nc2s1` [Example 133] cannot be ordered by IC50: less than 10 µM for the first, less than 10 µM for the second.

Compared with `CCCN(C)C(=O)c1cc2c(-c3ccc(C)cc3C)nc(N)nc2s1` [Example 93], `CCCNC(=O)c1cc2c(-c3ccc(C)cc3C)nc(N)nc2s1` [Example 61] is lower in IC50: greater than 10 µM for the first, less than 10 µM for the second.

`CCOC(=O)c1cc2c(-c3ccccc3Cl)nc(N)nc2s1` [Example 9] and `CCOC(=O)c1cc2c(-c3ccccc3Br)nc(N)nc2s1` [Example 97] cannot be ordered by IC50: less than 10 µM for the first, less than 10 µM for the second.

`CCNC(=O)c1cc2c(-c3cc(OCc4ccccc4)c(Cl)cc3Cl)nc(N)nc2s1` [Example 241] and `CCOC(=O)c1cc2c(-c3cc(OCc4ccccc4)c(Cl)cc3Cl)nc(N)nc2s1` [Example 239] cannot be ordered by IC50: less than 10 µM for the first, less than 10 µM for the second.

Going from `CC(C)CNC(=O)c1cc2c(-c3ccccc3)nc(N)nc2s1` [Example 52] to `CC(C)NC(=O)c1cc2c(-c3ccccc3)nc(N)nc2s1` [Example 56], the IC50 falls from greater than 10 µM to less than 10 µM. The second is the more potent here.

`CCOC(=O)c1cc2c(C(=O)c3ccc4c(c3)OCCO4)nc(N)nc2s1` [Example 312] and `CCOC(=O)c1cc2c(C(=O)c3ccc(Cl)cc3)nc(N)nc2s1` [Example 295, 2-Amino-4-(4-chloro-benzoyl)-thieno[2,3-d]pyrimidine-6-carboxylic acid ethyl ester] cannot be ordered by IC50: less than 10 µM for the first, less than 10 µM for the second.

`CCOC(=O)c1cc2c(-c3cc(C)ccc3C)nc(N)nc2s1` [Example 88] and `CCOC(=O)c1cc2c(-c3ccc(C)cc3C)nc(N)nc2s1` [Example 34] cannot be ordered by IC50: less than 10 µM for the first, less than 10 µM for the second.

`Nc1nc(-c2ccc(Cl)cc2Cl)c2cc(C(=O)Nc3ccc(F)cc3)sc2n1` [Example 135] and `COc1ccc(NC(=O)c2cc3c(-c4ccc(Cl)cc4Cl)nc(N)nc3s2)cc1` [Example 113] cannot be ordered by IC50: less than 10 µM for the first, less than 10 µM for the second.

`C=Cc1ccc(-c2nc(N)nc3sc(C(=O)OCC)cc23)c(C)c1` [Example 168] and `CCOC(=O)c1cc2c(-c3ccc(O)cc3C)nc(N)nc2s1` [Example 184, 2-Amino-4-(4-hydroxy-2-methyl-phenyl)-thieno[2,3-d]pyrimidine-6-carboxylic acid ethyl ester] cannot be ordered by IC50: less than 10 µM for the first, less than 10 µM for the second.

First: CCOC(=O)c1cc2c(/C=C/c3cccc(OC)c3)nc(N)nc2s1 [Example 279]
Second: CCOC(=O)c1cc2c(-c3ccc(OC)cc3)nc(N)nc2s1 [Example 12]
The IC50 of the first is lower: less than 10 µM for the first, greater than 10 µM for the second.

Compared with `CCOC(=O)c1cc2c(-c3ccc(Cl)cc3)nc(N)nc2s1` [Example 169], `CCOC(=O)c1cc2c(-c3ccc(CN4CCCCC4)cc3)nc(N)nc2s1` [Example 33, 2-Amino-4-(4-piperidin-1-ylmethyl-phenyl)-thieno[2,3-d]pyrimidine-6-carboxylic acid ethyl ester] is higher in IC50: less than 10 µM for the first, greater than 10 µM for the second. The first is the more potent here.

Compared with `CCOC(=O)c1cc2c(-c3ccc(OCC(=O)O)cc3C)nc(N)nc2s1` [Example 193], `CCOC(=O)c1cc2c(-c3ccc(OCC(N)=O)cc3C)nc(N)nc2s1` [Example 191] is lower in IC50: greater than 10 µM for the first, less than 10 µM for the second.

`NC(=O)c1ccc(NC(=O)c2cc3c(-c4ccc(Cl)cc4Cl)nc(N)nc3s2)cc1` [Example 110] and `Nc1nc(-c2ccc(Cl)cc2Cl)c2cc(C(=O)Nc3ccc(S(N)(=O)=O)cc3)sc2n1` [Example 108] cannot be ordered by IC50: less than 10 µM for the first, less than 10 µM for the second.

Going from `CCOC(=O)c1cc2c(C(C#N)c3ccc(OC)cc3)nc(N)nc2s1` (stereo not shown) [Example 318] to `CCOC(=O)c1cc2c(C(C#N)c3ccc4c(c3)OCO4)nc(N)nc2s1` (stereo not shown) [Example 316, 2-Amino-4-(benzo[1,3]dioxol-5-yl-cyano-methyl)-thieno[2,3-d]pyrimidine-6-carboxylic acid ethyl ester], the IC50 falls from greater than 10 µM to less than 10 µM. The second is the more potent here.

`Nc1nc(-c2ccccc2)c2cc(C(=O)N3CCOCC3)sc2n1` [Example 70] and `CCC(C)NC(=O)c1cc2c(-c3ccccc3)nc(N)nc2s1` (stereo not shown) [Example 59] cannot be ordered by IC50: greater than 10 µM for the first, greater than 10 µM for the second.

`CN(C)CCCNC(=O)c1cc2c(-c3ccccc3)nc(N)nc2s1` [Example 45] and `CCN(CC)CCCNC(=O)c1cc2c(-c3ccccc3)nc(N)nc2s1` [Example 58] cannot be ordered by IC50: greater than 10 µM for the first, greater than 10 µM for the second.

`Nc1nc(-c2ccc(Cl)cc2Cl)c2cc(C(=O)NCCc3ccccn3)sc2n1` [Example 156] and `Nc1nc(-c2ccc(Cl)cc2Cl)c2cc(C(=O)NCCO)sc2n1` [Example 136] cannot be ordered by IC50: less than 10 µM for the first, less than 10 µM for the second.

Compared with `CCOC(=O)c1cc2c(/C=C/C(C)(C)C)nc(N)nc2s1` [Example 289], `CCOC(=O)c1cc2c(-c3c(C)cccc3C)nc(N)nc2s1` [Example 6] is lower in IC50: greater than 10 µM for the first, less than 10 µM for the second. The second is the more potent here.

`Cc1ccc(-c2nc(N)nc3sc(C(=O)NCCCO)cc23)c(C)c1` [Example 85] and `Cc1ccc(-c2nc(N)nc3sc(C(=O)NCC(N)=O)cc23)c(C)c1` [Example 95] cannot be ordered by IC50: less than 10 µM for the first, less than 10 µM for the second.

`CCCCNCc1ccc(C)c(-c2nc(N)nc3sc(C(=O)NCC)cc23)c1` [Example 213] and `CCCNCc1ccc(C)c(-c2nc(N)nc3sc(C(=O)NCC)cc23)c1` [Example 197, 2-Amino-4-(2-methyl-5-propylaminomethyl-phenyl)-thieno[2,3-d]pyrimidine-6-carboxylic acid ethylamide] cannot be ordered by IC50: less than 10 µM for the first, less than 10 µM for the second.

First: CCOC(=O)c1cc2c(CCc3ccccc3)nc(N)nc2s1 [Example 275, 2-Amino-4-phenethyl-thieno[2,3-d]pyrimidine-6-carboxylic acid ethyl ester]
Second: CCOC(=O)c1cc2c(-c3ccccc3CC)nc(N)nc2s1 [Example 76]
The IC50 of the first is lower: less than 10 µM for the first, greater than 10 µM for the second.

`CCOC(=O)c1cc2c(-c3ccc(C)cc3Cl)nc(N)nc2s1` [Example 79] and `CCNC(=O)c1cc2c(-c3ccc(Cl)cc3C)nc(N)nc2s1` [Example 151] cannot be ordered by IC50: less than 10 µM for the first, less than 10 µM for the second.

`CCNC(=O)c1cc2c(-c3cc(CNCCCOC)ccc3C)nc(N)nc2s1` [Example 202] and `CCNC(=O)c1cc2c(-c3cc(CNCCO)ccc3C)nc(N)nc2s1` [Example 205] cannot be ordered by IC50: less than 10 µM for the first, less than 10 µM for the second.

`CCOC(=O)c1cc2c(-c3cccc4cccnc34)nc(N)nc2s1` [Example 100] and `CCOC(=O)c1cc2c(Nc3ccc4cn[nH]c4c3)nc(N)nc2s1` [Example 39] cannot be ordered by IC50: greater than 10 µM for the first, greater than 10 µM for the second.

First: NC(=O)CNC(=O)c1cc2c(-c3ccccc3)nc(N)nc2s1 [Example 71]
Second: Nc1nc(-c2ccccc2)c2cc(C(=O)NCCc3cccs3)sc2n1 [Example 55]
The IC50 of the first is lower: less than 10 µM for the first, greater than 10 µM for the second. The first is the more potent here.

`CCNC(=O)c1cc2c(-c3cc(CNCCC(N)=O)ccc3C)nc(N)nc2s1` [Example 208] and `C=CCNCc1ccc(C)c(-c2nc(N)nc3sc(C(=O)NCC)cc23)c1` [Example 209] cannot be ordered by IC50: less than 10 µM for the first, less than 10 µM for the second.

`CCNC(=O)c1cc2c(-c3cc(OCc4noc(-c5ccccc5OC)n4)c(Cl)cc3Cl)nc(N)nc2s1` [Example 269] and `CCNC(=O)c1cc2c(-c3cc(OCc4cc(=O)[nH]c(=O)[nH]4)c(Cl)cc3Cl)nc(N)nc2s1` [Example 268] cannot be ordered by IC50: less than 10 µM for the first, less than 10 µM for the second.

Going from `CCOC(=O)c1cc2c(NCCCc3c[nH]nc3O)nc(N)nc2s1` [Example 36] to `CCNC(=O)COc1ccc(-c2nc(N)nc3sc(C(=O)OCC)cc23)c(C)c1` [Example 195], the IC50 falls from greater than 10 µM to less than 10 µM. The second is the more potent here.

`CCNC(=O)c1cc2c(-c3cc(OCC(C)CN(C)C)c(Cl)cc3Cl)nc(N)nc2s1` (stereo not shown) [Example 256] and `COCCCNC(=O)c1cc2c(-c3ccc(Cl)cc3Cl)nc(N)nc2s1` [Example 126] cannot be ordered by IC50: less than 10 µM for the first, less than 10 µM for the second.

Compared with `CCOC(=O)c1cc2c(-c3ccc(CN4CCOCC4)cc3)nc(N)nc2s1` [Example 41], `CCCNC(=O)c1ccc(C)c(-c2nc(N)nc3sc(C(=O)OCC)cc23)c1` [Example 181] is lower in IC50: greater than 10 µM for the first, less than 10 µM for the second. The second is the more potent here.

`CCOC(=O)c1sc2nc(N)nc(-c3ccccc3)c2c1N` [Example 74, 2,5-Diamino-4-phenyl-thieno[2,3-d]pyrimidine-6-carboxylic acid ethyl ester] and `Nc1nc(-c2ccccc2)c2cc(C(=O)NCCc3cccnc3)sc2n1` [Example 51] cannot be ordered by IC50: greater than 10 µM for the first, greater than 10 µM for the second.

`CCNC(=O)c1cc2c(-c3cc(CNCc4cccnc4)ccc3C)nc(N)nc2s1` [Example 217] and `CCNC(=O)c1cc2c(-c3cc(CNCc4ccccn4)ccc3C)nc(N)nc2s1` [Example 216] cannot be ordered by IC50: less than 10 µM for the first, less than 10 µM for the second.

`CCNC(=O)c1cc2c(-c3cc(CNCc4cccs4)c(C)cc3C)nc(N)nc2s1` [Example 233] and `CCNC(=O)c1cc2c(-c3cc(CNCc4ccc(C)o4)ccc3C)nc(N)nc2s1` [Example 211] cannot be ordered by IC50: less than 10 µM for the first, less than 10 µM for the second.

`CSCC[C@H](NC(=O)c1cc2c(-c3ccc(Cl)cc3Cl)nc(N)nc2s1)C(N)=O` [Example 166] and `CCNC(=O)c1cc2c(/C=C/c3ccccc3)nc(N)nc2s1` [Example 286] cannot be ordered by IC50: less than 10 µM for the first, less than 10 µM for the second.
